Reference: US5179217A, “Method of preparing photochemotherapic alkylangelicin compounds” (priority 1982, dated 1993)
Values joined by “and” are separate entries in the source; they are usually repeats but may differ in a detail not shown here. Equal values may be shown once. Read-outs that look alike come from different tables or passages of the source.

Assays:
[1] = tested on: albino guinea-pig skin; assay: Skin erythemogenic activity / skin phototoxicity on albino guinea-pig skin; conditions: in vivo
Description: (§1) The 6-alkylangelicins show a strong antiproliferative activity in Ehrlich ascites tumor cells (Table II) and on the skin of mice in terms of DNA synthesis inhibition (Table III). These compounds are practically unable to induce skin phototoxicity on albino guinea-pig skin (Table II).
(§2) (a) Determined according to Bordin et al., Il Farmaco, Ed.Sc., 36, 506,

[2] = tested on: DNA; conditions: reference compound; data from Dall'Acqua et al. 1979; cited from earlier work
[3] = tested on: epidermal DNA synthesis; assay: Inhibition of epidermal DNA synthesis in the mouse in vivo after oral administration and UV-A irradiation; conditions: light or radiation study, read-out: % inhibition of epidermal DNA synthesis
Method: The strong activity of the 6-alkylangelicins according to the invention in inhibiting the epidermal DNA synthesis of mice after oral administration (see Table VI) allows to consider these compounds effective also by oral administration in humans and UV-A irradiation.
Inhibition of epidermal DNA synthesis
in the mouse "in vivo" after oral
administration of the compound (250 mg/kg)
and UV-A irradiation (9 J/cm^2) (a).
as §2

[4] = Acute toxicity (LD50) in mice; conditions: mouse, in vivo
[5] = tested on: mice; assay: Acute toxicity (LD50) in mice; conditions: mice, per os; 6,4'-dimethylangelicin in methylcellulose suspension
[6] = tested on: epidermal DNA synthesis; assay: Inhibition of epidermal DNA synthesis in the mouse in vivo after topical application and UV-A irradiation; conditions: topical 50 μg/cm^2, UV-A 9 J/cm^2, ± S.E.
Method: Inhibition of epidermal DNA synthesis in the mouse "in vivo"
after topical application (50 μg/cm^2) of the compound and

[7] = tested on: E. coli WP2-uvr A; assay type: cell-based
Method: Mutagenic activity of 6-alkylangelicins on E. coli
WP2-uvr A by irradiation with UV-A (a).
(a) The test was performed at the furocoumarin concentration of 5 μg/m
according to Venturini et al., Chem. Biol. Interactions, 30, 203, 1980.

[8] = tested on: DNA; conditions: reference compound; data from Dall'Acqua et al. 1979; cited from earlier work; remark: listed apart in the source
[9] = tested on: psoriatic lesions; conditions: for % clearance: topical 5 μg/cm^2 + UV-A (maximal dose 4-10 J/cm^2), 9-15 treatments; for dark pigmentation of human skin: treated area, patients
Method: In the treated patients various areas 4×4 cm of the affected skin were used:
a) in the first area an ethanolic solution (0.1% W/V) of the compound under investigation, was applied until a concentration of 5 μg/cm^2 was reached and left to evaporate by the heat of the body (or by hot air stream).
c) a third area was treated in the same way as area a), but was not irradiated with UV-A;
d) a fourth area was irradiated as in a) with the same dose of UV-A light in the absence of any compound.

[10] = tested on: Ehrlich ascites tumor cells; assay: Inhibition of DNA synthesis in Ehrlich ascites tumor cells; assay type: cell-based; conditions: relative to angelicin = 100
Description: as §1, §2

[11] = tested on: DNA; assay: Binding parameters of the complexes between 6-alkylangelicins and DNA (in the dark); parameters: K values: unit not given here; conditions: for -n (number of nucleotides occluded by one bound molecule) / l/-n (frequency of binding sites, ligands bound per nucleotide): according to Mc Ghee and Von Hippel; for K values: complex with DNA
Description: (§3) The 6-alkylangelicins show a strong affinity with DNA in the dark, thus forming molecular intercalated complexes; moreover the 6-methylangelicins complexed to DNA by irradiation bind very strongly to the macromolecule, inducing only monofunctional lesions (Table I).
(§4) Binding parameters of the complexes between 6-alkylangelicins and DNA
^a According to Mc Ghee and Von Hippel, (J.Mol. Biol., 86, 469, 1974)
-n is defined here as the number of nucleotides occluded by one bound
molecule of angelicin derivative.
^b l/-n defines, according to Mc Ghee and Von Hippel, the frequency o
binding sites; in other words, the number of ligands bound per nucleotide
and can be considered analogous to the "-n" value obtained by the classic
Scratchard method (Ann. N.Y. Acad. Sci., 51, 660, 1949).

[12] = tested on: DNA; assay: Rate constant of photoreaction with DNA; assay type: biochemical; conditions: irradiation
Description: as §3, §4
and rate constant of their photoreactions with the macromolecule.

[13] = mouse in vivo, oral 250 mg/kg, UV-A 9 J/cm^2, ± S.E.
[14] = UV-A irradiation time 10 seconds
[15] = UV-A irradiation time 20 seconds
[16] = UV-A irradiation time 30 seconds
[17] = UV-A irradiation time 60 seconds

COc1c2occc2cc2ccc(=O)oc12 [8-MOP, 8-methoxypsoralen, reference compound]
skin erythemogenic activity [1]: ++ | -n (number of nucleotides occluded by one bound molecule) [2]: 7.81 | K values [2]: 736 | l/-n (frequency of binding sites, ligands bound per nucleotide) [2]: 0.128 | inhibition at 250 mg/kg [3, 13]: 39.1 ± 3.7% | LD50 ([4]; ip): 300 mg/kg | LD50 [5]: 750 mg/kg | % inhibition of epidermal DNA synthesis [6]: 61.0 ± 1.6% | no of mutants per 10^6 survivors [7, 14]: 0.4 mutants per 10^6 survivors | no of mutants per 10^6 survivors [7, 15]: 1.15 mutants per 10^6 survivors | no of mutants per 10^6 survivors [7, 16]: 1.5 mutants per 10^6 survivors | no of mutants per 10^6 survivors [7, 17]: 3.1 mutants per 10^6 survivors | no of mutants per 10^6 survivors ([7]; UV-A irradiation time 90 seconds): 7.0 mutants per 10^6 survivors | rate constant of photoreaction with DNA [8]: 3.10 min^-1 × 10^2 | induction of skin erythema in humans ([9]; human, in vivo): severe phototoxic response

Cc1cc2c(o1)c(C)cc1ccc(=O)oc12 [6,5'-dimethylangelicin]
skin erythemogenic activity [1]: - | inhibition at 250 mg/kg [3, 13]: 22.5 ± 12% | Relative activity (inhibition of DNA synthesis in Ehrlich ascites tumor cells) [10]: 210 | -n (number of nucleotides occluded by one bound molecule) [11]: 12.82 | l/-n (frequency of binding sites, ligands bound per nucleotide) [11]: 0.078 ± 0.004 | K values [11]: 1,975 ± 136 | rate constant of photoreaction with DNA [12]: 3.00 min^-1 × 10^2

Cc1cc2c(o1)c(C)c(C)c1ccc(=O)oc12 [6,5,5'-trimethylangelicin]
inhibition at 250 mg/kg [3, 13]: 60.6 ± 14.1% | % inhibition of epidermal DNA synthesis [6]: 36.01 ± 11.7% | -n (number of nucleotides occluded by one bound molecule) [11]: 14.29 | l/-n (frequency of binding sites, ligands bound per nucleotide) [11]: 0.070 ± 0.0035 | K values [11]: 3,730 ± 339 | rate constant of photoreaction with DNA [12]: 2.30 min^-1 × 10^2

Cc1cc2ccc(=O)oc2c2ccoc12 [6-methylangelicin]
skin erythemogenic activity [1]: - | inhibition at 250 mg/kg [3, 13]: 19.6 ± 9.2% | Relative activity (inhibition of DNA synthesis in Ehrlich ascites tumor cells) [10]: 95 | % inhibition of epidermal DNA synthesis [6]: 29.25 ± 13.3% | -n (number of nucleotides occluded by one bound molecule) [11]: 20.83 | l/-n (frequency of binding sites, ligands bound per nucleotide) [11]: 0.048 ± 0.002 | K values [11]: 925 ± 64 | rate constant of photoreaction with DNA [12]: 3.60 min^-1 × 10^2

Cc1cc(=O)oc2c1cc(C)c1occ(C)c12 [6,4,4'-trimethylangelicin]
skin erythemogenic activity [1]: - | skin phototoxicity on guinea-pig skin [1]: absence of skin phototoxicity on guinea-pig skin | inhibition at 250 mg/kg [3, 13]: 67.7 ± 8.2% | Relative activity (inhibition of DNA synthesis in Ehrlich ascites tumor cells) [10]: 41666 | genotoxicity, mutagenic activity [7]: low genotoxicity | no of mutants per 10^6 survivors [7, 14]: 0.84 mutants per 10^6 survivors | no of mutants per 10^6 survivors [7, 15]: 1.18 mutants per 10^6 survivors | no of mutants per 10^6 survivors [7, 16]: 1.24 mutants per 10^6 survivors | no of mutants per 10^6 survivors [7, 17]: 1.98 mutants per 10^6 survivors | -n (number of nucleotides occluded by one bound molecule) [11]: 10.99 | l/-n (frequency of binding sites, ligands bound per nucleotide) [11]: 0.091 ± 0.0045 | K values [11]: 10,100 ± 1190 | rate constant of photoreaction with DNA [12]: 13.30 min^-1 × 10^2 | % clearance ([9]; single psoriatic patients, listed as 6,4,4'-TMA): 100% and 95% and 90% | dark pigmentation of human skin [9]: appears more active

Cc1cc(=O)oc2c1cc(C)c1occc12 [6,4-dimethylangelicin]
skin erythemogenic activity [1]: - | inhibition at 250 mg/kg [3, 13]: 58.4 ± 13% | Relative activity (inhibition of DNA synthesis in Ehrlich ascites tumor cells) [10]: 625 | % inhibition of epidermal DNA synthesis [6]: 47.05 ± 4.3% | no of mutants per 10^6 survivors [7, 14]: 0.24 mutants per 10^6 survivors | no of mutants per 10^6 survivors [7, 15]: 0.7 mutants per 10^6 survivors | no of mutants per 10^6 survivors [7, 16]: 0.99 mutants per 10^6 survivors | no of mutants per 10^6 survivors [7, 17]: 1.83 mutants per 10^6 survivors | -n (number of nucleotides occluded by one bound molecule) [11]: 15.87 | l/-n (frequency of binding sites, ligands bound per nucleotide) [11]: 0.063 ± 0.003 | K values [11]: 2,990 ± 232 | rate constant of photoreaction with DNA [12]: 5.23 min^-1 × 10^2

Cc1c(C)c2occc2c2oc(=O)ccc12 [6,5-dimethylangelicin]
inhibition at 250 mg/kg [3, 13]: 50.1 ± 19% | % inhibition of epidermal DNA synthesis [6]: 52.83 ± 2.3%

Cc1cc2c(o1)c(C)cc1c(C)cc(=O)oc12 [6,4,5'-trimethylangelicin]
skin erythemogenic activity [1]: - | inhibition at 250 mg/kg [3, 13]: 36.8 ± 8.5% | Relative activity (inhibition of DNA synthesis in Ehrlich ascites tumor cells) [10]: 646 | no of mutants per 10^6 survivors [7, 14]: 0.62 mutants per 10^6 survivors | no of mutants per 10^6 survivors [7, 15]: 0.91 mutants per 10^6 survivors | no of mutants per 10^6 survivors [7, 16]: 1.23 mutants per 10^6 survivors | no of mutants per 10^6 survivors [7, 17]: 1.93 mutants per 10^6 survivors | -n (number of nucleotides occluded by one bound molecule) [11]: 22.22 | l/-n (frequency of binding sites, ligands bound per nucleotide) [11]: 0.045 ± 0.002 | K values [11]: 3,310 ± 281 | rate constant of photoreaction with DNA [12]: 7.02 min^-1 × 10^2

Cc1cc2ccc(=O)oc2c2c(C)coc12 [6,4'-dimethylangelicin]
skin erythemogenic activity [1]: - | skin phototoxicity on guinea-pig skin [1]: absence of skin phototoxicity on guinea-pig skin | inhibition at 250 mg/kg [3, 13]: 49.2 ± 8% | Relative activity (inhibition of DNA synthesis in Ehrlich ascites tumor cells) [10]: 1096 | LD50 ([4]; ip): 750 mg/kg | LD50 ([4]; po): > 2000 mg/kg | % inhibition of epidermal DNA synthesis [6]: 36.56 ± 3.9% | genotoxicity, mutagenic activity [7]: low genotoxicity | no of mutants per 10^6 survivors [7, 14]: 0.96 mutants per 10^6 survivors | no of mutants per 10^6 survivors [7, 15]: 1.76 mutants per 10^6 survivors | no of mutants per 10^6 survivors [7, 16]: 2.63 mutants per 10^6 survivors | -n (number of nucleotides occluded by one bound molecule) [11]: 16.39 | l/-n (frequency of binding sites, ligands bound per nucleotide) [11]: 0.061 ± 0.003 | K values [11]: 6,300 ± 541 | rate constant of photoreaction with DNA [12]: 9.90 min^-1 × 10^2 | pigmental capacity ([9]; single psoriatic patients, topical 5 μg/cm^2 + UV-A): + | % clearance ([9]; single psoriatic patients, listed as 6,4'-DMA): 100% and 90% | dark pigmentation of human skin [9]: evident dark pigmentation in the treated area, less pronounced than that induced by 8-MOP

O=c1ccc2ccc3occc3c2o1 [angelicin]
inhibition at 250 mg/kg ([3]; Mus musculus, po): 28 ± 2% | % inhibition of epidermal DNA synthesis [6]: 17.5 ± 2.5% | -n (number of nucleotides occluded by one bound molecule) [11]: 15.87 | l/-n (frequency of binding sites, ligands bound per nucleotide) [11]: 0.063 ± 0.003 | K values [11]: 560 | rate constant of photoreaction with DNA [12]: 1.10 min^-1 × 10^2
